Results as given in ChEMBL document CHEMBL1201862, “PubChem BioAssay data set” (2004).
Activity calls are given as the source filed them.

Experiments:
[1] = microbe, parasite or virus in culture; format: functional; conditions: Mycobacterium tuberculosis
Fatty acid synthase [2] = target: T1, Fatty acid synthase (Homo sapiens, UniProt P49327); assay: inhibition of human FAS-TE enzyme activity – biochemical, endpoint fluorescence intensity, uHTS hits, dose response (AID 624327); format: functional;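 further: fluorescence from hydrolysis of an O-methyl fluorescein acyl ester substrate by the enzyme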
T1 sequence (P49327 whole entry): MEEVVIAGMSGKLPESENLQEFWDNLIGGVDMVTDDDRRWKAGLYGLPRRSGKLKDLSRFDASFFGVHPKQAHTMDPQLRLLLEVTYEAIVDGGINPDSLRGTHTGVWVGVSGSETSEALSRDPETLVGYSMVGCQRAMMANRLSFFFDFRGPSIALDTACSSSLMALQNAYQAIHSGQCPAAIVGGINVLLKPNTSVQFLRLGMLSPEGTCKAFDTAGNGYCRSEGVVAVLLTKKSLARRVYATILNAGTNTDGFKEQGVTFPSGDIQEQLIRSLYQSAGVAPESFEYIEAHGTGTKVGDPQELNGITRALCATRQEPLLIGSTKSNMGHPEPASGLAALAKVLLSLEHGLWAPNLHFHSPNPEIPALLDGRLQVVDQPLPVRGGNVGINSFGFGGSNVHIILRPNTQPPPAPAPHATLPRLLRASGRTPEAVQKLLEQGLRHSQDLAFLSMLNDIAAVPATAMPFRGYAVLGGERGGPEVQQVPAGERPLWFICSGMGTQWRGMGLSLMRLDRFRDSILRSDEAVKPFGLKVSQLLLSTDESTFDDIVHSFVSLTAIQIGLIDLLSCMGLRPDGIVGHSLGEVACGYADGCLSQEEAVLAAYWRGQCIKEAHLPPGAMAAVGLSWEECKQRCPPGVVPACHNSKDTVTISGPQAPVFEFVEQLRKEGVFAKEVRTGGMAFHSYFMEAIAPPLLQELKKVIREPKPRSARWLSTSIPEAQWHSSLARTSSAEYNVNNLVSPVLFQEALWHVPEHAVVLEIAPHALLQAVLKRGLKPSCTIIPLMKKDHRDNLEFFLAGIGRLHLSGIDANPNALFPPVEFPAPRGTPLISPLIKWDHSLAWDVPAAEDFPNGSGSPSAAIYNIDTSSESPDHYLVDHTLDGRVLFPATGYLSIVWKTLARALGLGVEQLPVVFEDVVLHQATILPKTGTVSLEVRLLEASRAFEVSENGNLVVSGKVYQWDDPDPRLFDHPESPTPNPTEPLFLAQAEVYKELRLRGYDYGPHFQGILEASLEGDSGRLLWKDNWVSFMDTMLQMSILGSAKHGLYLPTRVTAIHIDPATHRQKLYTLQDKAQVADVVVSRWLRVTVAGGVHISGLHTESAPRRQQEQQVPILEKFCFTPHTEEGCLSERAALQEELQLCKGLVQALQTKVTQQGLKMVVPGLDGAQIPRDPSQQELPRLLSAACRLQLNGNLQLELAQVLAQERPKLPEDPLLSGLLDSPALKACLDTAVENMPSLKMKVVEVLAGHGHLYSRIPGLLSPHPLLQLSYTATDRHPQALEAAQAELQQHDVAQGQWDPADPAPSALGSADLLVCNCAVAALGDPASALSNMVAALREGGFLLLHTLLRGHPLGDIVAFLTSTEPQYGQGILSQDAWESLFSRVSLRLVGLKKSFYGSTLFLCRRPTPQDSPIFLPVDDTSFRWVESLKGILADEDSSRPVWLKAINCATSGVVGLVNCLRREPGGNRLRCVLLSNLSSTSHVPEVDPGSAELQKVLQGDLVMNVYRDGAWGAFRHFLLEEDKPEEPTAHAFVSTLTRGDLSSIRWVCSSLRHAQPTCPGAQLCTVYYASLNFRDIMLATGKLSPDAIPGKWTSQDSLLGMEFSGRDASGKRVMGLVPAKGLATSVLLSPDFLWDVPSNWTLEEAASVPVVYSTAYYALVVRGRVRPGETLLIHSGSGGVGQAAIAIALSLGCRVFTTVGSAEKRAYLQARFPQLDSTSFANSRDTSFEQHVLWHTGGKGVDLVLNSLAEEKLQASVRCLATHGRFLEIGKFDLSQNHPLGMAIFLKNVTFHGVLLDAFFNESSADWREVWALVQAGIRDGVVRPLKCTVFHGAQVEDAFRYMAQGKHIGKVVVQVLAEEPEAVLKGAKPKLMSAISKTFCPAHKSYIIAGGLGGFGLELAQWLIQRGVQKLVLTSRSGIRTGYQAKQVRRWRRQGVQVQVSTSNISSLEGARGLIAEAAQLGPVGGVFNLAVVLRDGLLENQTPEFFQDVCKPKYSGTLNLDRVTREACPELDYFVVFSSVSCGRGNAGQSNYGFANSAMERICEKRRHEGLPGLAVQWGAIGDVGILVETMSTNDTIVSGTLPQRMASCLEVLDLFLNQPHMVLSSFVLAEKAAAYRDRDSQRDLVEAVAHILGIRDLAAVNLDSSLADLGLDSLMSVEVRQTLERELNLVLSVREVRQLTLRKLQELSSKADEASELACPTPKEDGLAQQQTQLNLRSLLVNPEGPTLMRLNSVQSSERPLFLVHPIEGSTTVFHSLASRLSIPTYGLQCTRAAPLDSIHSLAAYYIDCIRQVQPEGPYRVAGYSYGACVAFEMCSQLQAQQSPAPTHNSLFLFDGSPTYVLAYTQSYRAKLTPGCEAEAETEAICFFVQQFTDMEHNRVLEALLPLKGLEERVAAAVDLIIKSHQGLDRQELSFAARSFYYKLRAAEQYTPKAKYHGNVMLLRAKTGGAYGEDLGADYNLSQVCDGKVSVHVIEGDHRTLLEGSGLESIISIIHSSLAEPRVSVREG

[3] = target: T2, Calpain-2 catalytic subunit (Sus scrofa, UniProt P43367); assay: m-calpain protease blockers, concentration series – biochemical, fluorogenic peptide substrate, dose response (AID 1420); format: functional
T2 sequence (P43367 whole entry): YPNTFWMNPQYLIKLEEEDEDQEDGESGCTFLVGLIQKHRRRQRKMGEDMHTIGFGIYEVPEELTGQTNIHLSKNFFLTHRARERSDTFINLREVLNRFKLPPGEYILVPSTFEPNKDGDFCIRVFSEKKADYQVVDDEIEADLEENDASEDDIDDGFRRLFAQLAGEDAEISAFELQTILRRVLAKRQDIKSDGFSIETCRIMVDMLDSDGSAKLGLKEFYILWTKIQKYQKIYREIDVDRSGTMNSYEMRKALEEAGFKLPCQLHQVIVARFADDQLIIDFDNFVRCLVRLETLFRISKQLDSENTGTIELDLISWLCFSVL

Fatty acid synthase [4] = target: T1, Fatty acid synthase; assay: inhibition of human FAS-TE enzyme activity – biochemical, kinetic fluorescence intensity, dose response (AID 624326); format: functional;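 further: rate of fluorescence rise from hydrolysis of a fluorogenic O-methyl fluorescein ester substrate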
[5] = target: T3, Histone-lysine N-methyltransferase NSD2 (Homo sapiens, UniProt O96028); format: biochemical
T3 sequence (O96028 whole entry): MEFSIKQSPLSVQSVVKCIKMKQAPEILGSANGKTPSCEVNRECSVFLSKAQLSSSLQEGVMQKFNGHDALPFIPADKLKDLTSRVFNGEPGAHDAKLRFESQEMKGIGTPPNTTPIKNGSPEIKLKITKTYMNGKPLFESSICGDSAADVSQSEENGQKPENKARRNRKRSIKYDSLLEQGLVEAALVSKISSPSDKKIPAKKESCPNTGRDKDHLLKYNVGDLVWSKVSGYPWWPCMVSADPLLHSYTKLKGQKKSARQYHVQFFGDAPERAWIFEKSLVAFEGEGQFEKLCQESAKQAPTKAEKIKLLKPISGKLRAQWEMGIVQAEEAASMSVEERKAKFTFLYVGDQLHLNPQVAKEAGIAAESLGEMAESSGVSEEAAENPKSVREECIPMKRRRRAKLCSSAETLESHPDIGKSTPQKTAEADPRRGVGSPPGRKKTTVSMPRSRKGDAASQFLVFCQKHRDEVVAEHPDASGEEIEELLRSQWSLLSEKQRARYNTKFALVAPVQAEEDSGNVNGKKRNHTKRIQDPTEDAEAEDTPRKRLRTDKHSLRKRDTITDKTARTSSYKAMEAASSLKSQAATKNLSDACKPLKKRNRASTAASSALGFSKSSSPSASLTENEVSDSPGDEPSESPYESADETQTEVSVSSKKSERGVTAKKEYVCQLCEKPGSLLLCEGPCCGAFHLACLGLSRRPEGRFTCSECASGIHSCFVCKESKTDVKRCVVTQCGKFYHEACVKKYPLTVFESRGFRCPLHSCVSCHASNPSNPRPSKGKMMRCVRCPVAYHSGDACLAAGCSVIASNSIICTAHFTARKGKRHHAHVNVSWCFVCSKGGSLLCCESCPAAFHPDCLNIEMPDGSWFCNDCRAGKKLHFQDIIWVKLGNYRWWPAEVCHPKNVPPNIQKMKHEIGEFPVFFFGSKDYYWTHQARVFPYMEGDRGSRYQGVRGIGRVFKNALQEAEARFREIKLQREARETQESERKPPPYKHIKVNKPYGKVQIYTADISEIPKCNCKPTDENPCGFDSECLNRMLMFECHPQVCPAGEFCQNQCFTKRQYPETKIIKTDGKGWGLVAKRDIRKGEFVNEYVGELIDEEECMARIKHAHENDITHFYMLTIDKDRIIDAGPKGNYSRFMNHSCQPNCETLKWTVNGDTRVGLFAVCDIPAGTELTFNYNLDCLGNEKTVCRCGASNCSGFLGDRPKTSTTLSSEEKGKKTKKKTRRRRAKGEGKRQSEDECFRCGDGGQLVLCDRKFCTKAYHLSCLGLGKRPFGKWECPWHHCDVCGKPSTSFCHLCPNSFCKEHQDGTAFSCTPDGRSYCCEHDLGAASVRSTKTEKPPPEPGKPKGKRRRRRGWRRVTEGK

[6] = target: Heat shock protein HSP 90-alpha (Homo sapiens, UniProt P07900); format: functional, organism-based
HEK293 [7] = assay: cells; format: functional, cell-based; conditions: Homo sapiens
HEK293 [8] = assay: cells; format: functional, cell-based; conditions: Homo sapiens; remark: listed apart in the source
HEK293 [9] = assay: NOD2 signaling inhibitors in MDP-stimulated cells, cell-based, uHTS, luminescence (AID 2001); format: functional; conditions: Homo sapiens
HEK293 [10] = assay: inhibition of NOD1-driven NF-kB reporter – cell-based, luminescence, uHTS, primary screen (AID 1578); format: functional; conditions: Homo sapiens
[11] = target: Dual specificity tyrosine-phosphorylation-regulated kinase 1A (Rattus norvegicus, UniProt Q63470); format: biochemical, Homo sapiens
[12] = viability of HCT116 lacking mutant beta-catenin – cell-based, human colon tumor, dose response (AID 1045); format: functional;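 further: HCT116 colon tumor cells with beta catenin knocked out; cells exposed to compound for 60 hours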
[13] = viability of PTEN-deleted HCT116 cells – cell-based, HCT116 PTEN knockout, dose response (AID 1047); format: functional;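 further: HCT116 colon tumor cells with PTEN knocked out; cells exposed to compound for 60 hours before readout; potency for loss of cell viability measured by luminescence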
[14] = target: T4, Sentrin-specific protease 8 (Homo sapiens, UniProt Q96LD8); format: functional;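 further: luminescence read-out of SENP8 inhibition, dose-response confirmation following an ultra-high-throughput screen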
T4 sequence (Q96LD8 whole entry): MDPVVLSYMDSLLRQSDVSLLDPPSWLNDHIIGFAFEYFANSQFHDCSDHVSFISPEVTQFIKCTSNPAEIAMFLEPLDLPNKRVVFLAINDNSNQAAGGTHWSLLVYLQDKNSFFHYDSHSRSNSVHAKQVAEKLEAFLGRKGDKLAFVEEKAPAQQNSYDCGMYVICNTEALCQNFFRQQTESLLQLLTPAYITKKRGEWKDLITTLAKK

[15] = target: T5, Sentrin-specific protease 6 (Homo sapiens, UniProt Q9GZR1); format: functional;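 further: Luminescence-based dose-response confirmatory assay of SENP6 inhibition, following up an ultra-high-throughput screen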
T5 sequence (Q9GZR1 whole entry): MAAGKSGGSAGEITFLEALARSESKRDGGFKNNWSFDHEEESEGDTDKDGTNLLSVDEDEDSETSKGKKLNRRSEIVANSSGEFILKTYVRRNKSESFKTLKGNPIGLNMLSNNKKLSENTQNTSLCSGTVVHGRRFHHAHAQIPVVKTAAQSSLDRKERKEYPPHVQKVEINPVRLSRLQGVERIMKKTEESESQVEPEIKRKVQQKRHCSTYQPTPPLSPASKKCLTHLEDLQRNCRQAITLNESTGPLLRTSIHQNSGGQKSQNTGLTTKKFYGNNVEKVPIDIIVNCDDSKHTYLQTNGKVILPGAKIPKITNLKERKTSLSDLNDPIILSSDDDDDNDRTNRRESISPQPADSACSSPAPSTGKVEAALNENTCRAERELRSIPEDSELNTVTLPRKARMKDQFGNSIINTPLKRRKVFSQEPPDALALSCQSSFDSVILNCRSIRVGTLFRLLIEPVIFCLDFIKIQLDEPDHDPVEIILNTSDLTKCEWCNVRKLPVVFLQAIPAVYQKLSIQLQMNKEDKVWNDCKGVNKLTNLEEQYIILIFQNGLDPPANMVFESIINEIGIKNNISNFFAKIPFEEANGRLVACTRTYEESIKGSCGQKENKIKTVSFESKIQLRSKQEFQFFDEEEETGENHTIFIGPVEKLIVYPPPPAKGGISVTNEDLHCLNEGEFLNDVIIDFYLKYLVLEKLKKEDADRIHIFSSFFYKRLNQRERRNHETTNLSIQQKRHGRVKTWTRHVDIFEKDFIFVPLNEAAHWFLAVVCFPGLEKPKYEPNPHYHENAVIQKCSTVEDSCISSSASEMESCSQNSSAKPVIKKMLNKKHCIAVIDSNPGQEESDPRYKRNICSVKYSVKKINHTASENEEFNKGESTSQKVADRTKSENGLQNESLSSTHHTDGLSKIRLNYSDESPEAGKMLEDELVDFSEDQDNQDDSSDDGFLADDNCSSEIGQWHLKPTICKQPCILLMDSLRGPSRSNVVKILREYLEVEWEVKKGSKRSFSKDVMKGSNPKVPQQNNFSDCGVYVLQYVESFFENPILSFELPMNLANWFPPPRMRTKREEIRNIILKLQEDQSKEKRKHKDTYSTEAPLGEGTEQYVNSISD

[16] = target: T6, Sentrin-specific protease 7 (Homo sapiens, UniProt Q9BQF6); format: functional;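 further: Luminescence-based dose-response confirmation of ultra-high-throughput screening hits, measuring inhibition of SENP7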
T6 sequence (Q9BQF6 whole entry): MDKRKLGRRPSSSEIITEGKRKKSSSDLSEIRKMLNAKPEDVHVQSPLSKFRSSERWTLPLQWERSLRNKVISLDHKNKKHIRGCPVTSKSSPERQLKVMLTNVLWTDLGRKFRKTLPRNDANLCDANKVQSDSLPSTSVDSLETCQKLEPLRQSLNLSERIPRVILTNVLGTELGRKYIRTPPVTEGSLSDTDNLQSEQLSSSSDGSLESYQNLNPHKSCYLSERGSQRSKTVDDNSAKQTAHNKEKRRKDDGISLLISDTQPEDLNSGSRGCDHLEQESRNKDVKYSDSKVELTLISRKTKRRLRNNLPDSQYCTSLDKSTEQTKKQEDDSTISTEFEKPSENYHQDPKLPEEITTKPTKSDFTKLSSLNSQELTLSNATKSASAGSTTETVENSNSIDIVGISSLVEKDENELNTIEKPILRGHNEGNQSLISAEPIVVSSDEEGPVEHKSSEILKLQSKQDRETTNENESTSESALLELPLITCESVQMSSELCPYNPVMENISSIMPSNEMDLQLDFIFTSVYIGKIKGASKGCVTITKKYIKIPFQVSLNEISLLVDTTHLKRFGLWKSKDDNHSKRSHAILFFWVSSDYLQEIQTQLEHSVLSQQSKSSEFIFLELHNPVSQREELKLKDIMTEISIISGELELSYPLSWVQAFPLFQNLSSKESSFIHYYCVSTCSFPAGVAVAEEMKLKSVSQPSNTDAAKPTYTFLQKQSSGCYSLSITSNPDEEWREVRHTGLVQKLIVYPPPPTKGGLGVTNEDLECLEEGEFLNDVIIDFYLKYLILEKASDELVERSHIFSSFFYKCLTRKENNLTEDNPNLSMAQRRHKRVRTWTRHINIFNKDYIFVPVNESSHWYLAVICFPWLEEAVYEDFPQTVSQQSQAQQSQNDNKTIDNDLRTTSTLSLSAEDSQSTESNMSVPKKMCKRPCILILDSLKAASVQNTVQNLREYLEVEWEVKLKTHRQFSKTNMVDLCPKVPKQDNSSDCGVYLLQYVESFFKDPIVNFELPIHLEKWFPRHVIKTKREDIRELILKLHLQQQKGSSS

[17] = activation of miR-122 Renilla sensor silencing – cell-based, Huh7 psiCHECK-miR122, Renilla luciferase, cherry-picked, dose response (AID 651956); format: functional;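 further: huh7 hepatoma cells stably carrying a psiCHECK-2 miR-122 sensor plasmid; renilla luciferase signal reporting endogenous miR-122 activity after 48 h compound exposure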
Paired box protein Pax-8 = Paired box protein Pax-8 (Homo sapiens, UniProt Q06710); assay: PAX8 transcriptional activity inhibition in RMG-I – RMG-I cells, luciferase, cherry-pick, dose response (AID 687027); format: functional, cell-based;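 further: luciferase reporter driven by Pax8 target thyroperoxidase promoter measured by SteadyGlo luminescence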
Paired box protein Pax-8, sequence (Q06710 whole entry, the tested form may be a part): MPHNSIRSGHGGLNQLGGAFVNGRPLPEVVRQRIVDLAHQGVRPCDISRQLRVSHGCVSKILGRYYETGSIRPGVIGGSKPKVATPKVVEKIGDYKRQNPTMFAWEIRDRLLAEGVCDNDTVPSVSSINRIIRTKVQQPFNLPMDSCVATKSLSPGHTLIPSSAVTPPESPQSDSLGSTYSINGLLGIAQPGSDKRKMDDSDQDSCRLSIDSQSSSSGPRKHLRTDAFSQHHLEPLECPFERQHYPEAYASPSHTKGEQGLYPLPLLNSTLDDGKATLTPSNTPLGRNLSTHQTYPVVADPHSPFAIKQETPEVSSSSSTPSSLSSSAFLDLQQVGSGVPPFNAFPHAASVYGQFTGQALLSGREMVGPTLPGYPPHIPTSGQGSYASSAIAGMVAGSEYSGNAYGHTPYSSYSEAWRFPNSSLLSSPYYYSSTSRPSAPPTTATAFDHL

[18] = blockers of HIV-1 envelope-mediated cell-cell fusion – cherry-pick, dose response (AID 652057); format: functional, cell-based
[19] = blockers of HIV-1 ZM109 envelope-driven cell-cell fusion – HeLa effector, CEM target cells, luciferase, cherry-pick, dose response (AID 652058); format: functional, cell-based;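 further: luciferase signal from HIV-1 Env mediated cell-cell fusion of effector and target cells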
[20] = HIV-1 AD8 envelope cell-cell fusion blockers – cherry-pick, dose response (AID 652062); format: functional, cell-based;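 further: luciferase signal from cell-cell fusion driven by HIV-1 clade B AD8 Env; potency is for inhibitors of fusion seen as a drop in luminescence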
[21] = viability loss in CEM21 cells – cell-based, CellTiter-Glo luminescence, cherry-picked, cytotoxicity control for viral fusion inhibitor project, dose response (AID 652042); format: functional;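 further: potency for signal decrease meaning cytotoxicity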
[22] = off-target signal loss in HeLa-CEM21 co-culture – HeLa F-luc CTL cells, cherry-picked, counter-screen for HIV-1 Env fusion inhibitor project, dose response (AID 652040); format: functional, cell-based;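 further: potency for signal decrease marking cytotoxic or nonspecific inhibition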

CCCCCn1c(CN2CCN(c3cccc(Cl)c3)CC2)nc2c1c(=O)[nH]c(=O)n2C
CC50 [1]: > 40 µM (active)

O=C1NC(=S)S/C1=C\c1cc2ccccc2nc1N1CCCCC1
IC50 (Fatty acid synthase [2]): 46 µM (inactive)
IC50 [3]: 1.63 µM (not active)
IC50 (Fatty acid synthase [4]): 11.2 µM (active)
AC50 [5]: 11.1 µM (active)
AC50 [6]: 3.98 µM (active)

CCOc1ccc(C(=O)/C=C/c2cc(OC)c(OC)c(OC)c2)cc1
IC50 (HEK293 [7]): 14.7 µM (active)
IC50 (HEK293 [8]): 5.97 µM (active)
IC50 (HEK293 [9]): 5.02 µM (active)
EC50 (HEK293 [10]): 11.5 µM (active)

Oc1ccnc2ccc(Cl)cc12
AC50 [11]: 13.6 µM (active)

Cc1c(NS(=O)(=O)c2ccc3c(c2)OCCO3)cccc1-c1nc2cccnc2s1
IC50 (HEK293 [7]): 10.9 µM (active)
IC50 (HEK293 [8]): 5.27 µM (active)
IC50 (HEK293 [9]): 4.02 µM (active)
EC50 (HEK293 [10]): 4.14 µM (active)

Cc1oc(-c2cccc(Cl)c2)nc1CN1CCC(C(=O)N2CCN(c3ccccc3F)CC2)CC1
EC50 [12]: 14.5 µM (active)
EC50 [13]: 15.5 µM (active)
CC50 [1]: 28.9 µM (active)

Cc1cc(C(=O)CCl)c(C)n1-c1cccc([N+](=O)[O-])c1
CC50 [1]: 13.5 µM (active)

CC(C)(C)c1ccc(C(=O)NCCOc2ccccc2)cc1
IC50 [14]: > 100 µM (inactive)
IC50 [15]: > 100 µM (inactive)
IC50 [16]: 5.62 µM (active)

C[C@@H]1CN([C@@H](C)CO)C(=O)Cc2cc(NS(=O)(=O)c3ccc(F)cc3)ccc2O[C@H]1CN(C)Cc1ccc(Oc2ccccc2)cc1
AC50 [17]: 1.96 µM (active)
AC50 (Paired box protein Pax-8): 5.32 µM (active)

C[C@H](CO)N1C[C@H](C)[C@H](CN(C)C(=O)N[C@H](C)c2ccccc2)OCc2ccccc2-c2c(n(C)c3ccccc23)C1=O
AC50 [18]: 0.975 µM (active)
AC50 [19]: 1.62 µM (active)
AC50 [20]: 1.07 µM (active)
AC50 [21]: 64.6 µM (active)
AC50 [22]: 1.53 µM (active)

CCC(=O)Nc1ccc2c(c1)OC[C@H](C)N(CC1CCCCC1)C[C@H](C)[C@@H](OC)CN(C)C2=O
AC50 [18]: 2.93 µM (active)
AC50 [19]: 2.21 µM (active)
AC50 [20]: 4.48 µM (active)
AC50 [21]: 55.6 µM (active)
